Results: patent US20160002204A1 (Board of Regents, The University of Texas System, priority 2014, published 2016)

Experiments:
A549 cells = experiment: A549 proliferation (viability) assay, Cell Titer Fluor, 72 hours; type: cell-based; conditions: Homo sapiens
In short: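 1000 A549 cells/well, RPMI 1640/10% dialyzed FBS, 24 h attach; compound 72 h, 0.5% DMSO, 37 °C/5% CO2; Cell Titer Fluor fluorescence; EC50 via 4-parameter logistic.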

[1] = biological target: T1, GLS1 (purified recombinant human GAC) (Homo sapiens, UniProt O94925); experiment: GLS1 enzymatic activity assay (dual-coupled, Amplex UltraRed/resorufin); type: biochemical
T1 sequence (O94925 55-598 isoform O94925-3 limits assumed): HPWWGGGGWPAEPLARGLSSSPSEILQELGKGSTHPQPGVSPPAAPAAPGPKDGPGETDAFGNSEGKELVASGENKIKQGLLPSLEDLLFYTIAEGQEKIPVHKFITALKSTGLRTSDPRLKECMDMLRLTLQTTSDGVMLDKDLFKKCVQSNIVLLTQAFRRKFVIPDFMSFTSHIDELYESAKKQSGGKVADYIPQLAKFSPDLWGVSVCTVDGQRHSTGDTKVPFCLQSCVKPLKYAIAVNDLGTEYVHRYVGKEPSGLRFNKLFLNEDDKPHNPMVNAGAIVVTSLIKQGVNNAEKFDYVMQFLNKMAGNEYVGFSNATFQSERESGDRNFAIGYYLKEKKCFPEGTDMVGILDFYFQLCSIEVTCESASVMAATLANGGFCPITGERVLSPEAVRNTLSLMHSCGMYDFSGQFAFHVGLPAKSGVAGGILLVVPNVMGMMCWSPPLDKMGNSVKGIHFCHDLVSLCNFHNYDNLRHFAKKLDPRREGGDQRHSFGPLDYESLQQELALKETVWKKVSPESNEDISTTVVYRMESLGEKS
In short: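 GAC activity measured by coupling glutamate to glutamate oxidase and HRP, generating resorufin from Amplex UltraRed. Enzyme (2 nM) preincubated with 50 mM potassium phosphate 10 min at room temperature, then inhibitor 10 min; 1 mM glutamine substrate, 1% DMSO. Fluorescence 530/590 nm, kinetic or 20-min endpoint; IC50 from four-parameter logistic fit.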

Row | Compound | EC50 (A549 cells) | IC50 [1]
1 | Cc1ccc(CNC(=O)c2cn(C[C@@H](F)CCn3ccc(NC(=O)Cc4ccccc4)c(F)c3=O)nn2)cn1 [Example 124, (S)-1-(2-fluoro-4-(3-fluoro-2-oxo-4-(2-phenylacetamido)pyridin-1(2H)-yl)butyl)-N-((6-methylpyridin-3-yl)methyl)-1H-1,2,3-triazole-4-carboxamide] | 500 to 5000 nM | 100 to 500 nM
2 | O=C(Cc1ccccc1)Nc1ccn(CC[C@H](F)Cn2cc(C(=O)NCc3cc(C(F)(F)F)ccn3)nn2)c(=O)c1F [Example 125, (S)-1-(2-fluoro-4-(3-fluoro-2-oxo-4-(2-phenylacetamido)pyridin-1(2H)-yl)butyl)-N-((4-(trifluoromethyl)pyridin-2-yl)methyl)-1H-1,2,3-triazole-4-carboxamide] | < 100 nM | < 100 nM
3 | O=C(Cc1ccccc1)Nc1ccn(CC[C@H](F)Cn2cc(C(=O)NCc3cccc(C(F)(F)F)n3)nn2)c(=O)c1F [Example 126, (S)-1-(2-fluoro-4-(3-fluoro-2-oxo-4-(2-phenylacetamido)pyridin-1(2H)-yl)butyl)-N-((6-(trifluoromethyl)pyridin-2-yl)methyl)-1H-1,2,3-triazole-4-carboxamide] | 100 to 500 nM | < 100 nM
4 | O=C(Cc1ccccc1)Nc1ccn(CC[C@H](F)Cn2cc(C(=O)NCc3cccc(OC(F)(F)F)c3)nn2)c(=O)c1F [Example 127] | < 100 nM | < 100 nM
5 | CC(C)CNC(=O)Nc1nnc(CCCCn2ccc(NC(=O)CC3CCCC3)c(F)c2=O)s1 [Example 128, 2-cyclopentyl-N-(3-fluoro-1-(4-(5-(3-isobutylureido)-1,3,4-thiadiazol-2-yl)butyl)-2-oxo-1,2-dihydropyridin-4-yl)acetamide] | > 5000 nM | 100 to 500 nM
6 | O=C(Cc1ccccc1)Nc1ccn(CCCCc2nnc(NC(=O)NCc3ccccc3)s2)c(=O)c1F [Example 129, N-(1-(4-(5-(3-benzylureido)-1,3,4-thiadiazol-2-yl)butyl)-3-fluoro-2-oxo-1,2-dihydropyridin-4-yl)-2-phenylacetamide] | 500 to 5000 nM | < 100 nM
7 | O=C(CC1CCCC1)Nc1ccn(CCCCc2nnc(NC(=O)NCc3ccccc3)s2)c(=O)c1F [Example 130, N-(1-(4-(5-(3-benzylureido)-1,3,4-thiadiazol-2-yl)butyl)-3-fluoro-2-oxo-1,2-dihydropyridin-4-yl)-2-cyclopentylacetamide] | 500 to 5000 nM | < 100 nM
8 | O=C(CC1CCCC1)Nc1ccn(CCCCc2nnc(NC(=O)NCc3ccccn3)s2)c(=O)c1F [Example 131, 2-cyclopentyl-N-(3-fluoro-2-oxo-1-(4-(5-(3-(pyridin-2-ylmethyl)ureido)-1,3,4-thiadiazol-2-yl)butyl)-1,2-dihydropyridin-4-yl)acetamide] | 500 to 5000 nM | < 100 nM
9 | CNC(=O)Nc1nnc(CCCCn2ccc(NC(=O)CC3CCCC3)c(F)c2=O)s1 [Example 132, 2-cyclopentyl-N-(3-fluoro-1-(4-(5-(3-methylureido)-1,3,4-thiadiazol-2-yl)butyl)-2-oxo-1,2-dihydropyridin-4-yl)acetamide] | > 5000 nM | 100 to 500 nM
10 | O=C(CC1CCCC1)Nc1ccn(CCCCc2nnc(NC(=O)NCc3cccc(C(F)(F)F)c3)s2)c(=O)c1F [Example 133, 2-cyclopentyl-N-(3-fluoro-2-oxo-1-(4-(5-(3-(3-(trifluoromethyl)benzyl)ureido)-1,3,4-thiadiazol-2-yl)butyl)-1,2-dihydropyridin-4-yl)acetamide] | 100 to 500 nM | < 100 nM
11 | O=C(Cc1ccccc1)Nc1ccn(CCC(F)Cn2cc(C(=O)NCc3cccc(OC(F)(F)F)c3)nn2)c(=O)c1 (stereo not shown) [Example 134, 1-{2-fluoro-4-[2-oxo-4-(2-phenylacetamido)-1,2-dihydropyridin-1-yl]butyl}-N-{[3-(trifluoromethoxy)phenyl]methyl}-1H-1,2,3-triazole-4-carboxamide] | < 100 nM | < 100 nM
12 | Cc1ccc(CNC(=O)c2cn(CCCCn3ccc(NC(=O)OCc4ccccc4)cc3=O)nn2)cn1 [Example 135, benzyl N-{1-[4-(4-{[(6-methylpyridin-3-yl)methyl]carbamoyl}-1H-1,2,3-triazol-1-yl)butyl]-2-oxo-1,2-dihydropyridin-4-yl}carbamate] | 500 to 5000 nM | 100 to 500 nM
13 | NC(=O)CNC(=O)c1cn(CCCCn2ccc(NC(=O)Cc3cccc(OC(F)(F)F)c3)cc2=O)nn1 [Example 136, 2-({1-[4-(2-oxo-4-{2-[3-(trifluoromethoxy)phenyl]acetamido}-1,2-dihydropyridin-1-yl)butyl]-1H-1,2,3-triazol-4-yl}formamido)acetamide] | > 5000 nM | 100 to 500 nM
14 | CC(C)(C)OC(=O)Nc1ccn(CCCCn2cc(C(=O)NCc3cccc(C(F)(F)F)c3)nn2)c(=O)c1 [Example 139, tert-butyl N-(2-oxo-1-{4-[4-({[3-(trifluoromethyl)phenyl]methyl}carbamoyl)-1H-1,2,3-triazol-1-yl]butyl}-1,2-dihydropyridin-4-yl)carbamate] | 100 to 500 nM | < 100 nM
15 | O=C(CC1CCCCC1)Nc1ccn(CCCCn2cc(C(=O)NCc3cccc(C(F)(F)F)c3)nn2)c(=O)c1 [Example 141, 1-{4-[4-(2-cyclohexylacetamido)-2-oxo-1,2-dihydropyridin-1-yl]butyl}-N-{[3-(trifluoromethyl)phenyl]methyl}-1H-1,2,3-triazole-4-carboxamide] | < 100 nM | < 100 nM
16 | Cc1ccc(CNC(=O)c2cn(CCCCn3ccc(NC(=O)OC(C)(C)C)cc3=O)nn2)cn1 [Example 143, tert-butyl N-{1-[4-(4-{[(6-methylpyridin-3-yl)methyl]carbamoyl}-1H-1,2,3-triazol-1-yl)butyl]-2-oxo-1,2-dihydropyridin-4-yl}carbamate] | 500 to 5000 nM | 100 to 500 nM
17 | O=C(Cc1ccccc1)Nc1ccn(CC(F)CCn2cc(C(=O)NCc3cccc(OC(F)(F)F)c3)nn2)c(=O)c1 (stereo not shown) [Example 144, 1-{3-fluoro-4-[2-oxo-4-(2-phenylacetamido)-1,2-dihydropyridin-1-yl]butyl}-N-{[3-(trifluoromethoxy)phenyl]methyl}-1H-1,2,3-triazole-4-carboxamide] | < 100 nM | < 100 nM
18 | Cc1ccc(CNC(=O)c2cn(CCCCn3ccc(NC(=O)CC4CCCCC4)cc3=O)nn2)cn1 [Example 145, 1-{4-[4-(2-cyclohexylacetamido)-2-oxo-1,2-dihydropyridin-1-yl]butyl}-N-[(6-methylpyridin-3-yl)methyl]-1H-1,2,3-triazole-4-carboxamide] | 100 to 500 nM | < 100 nM
19 | O=C(CC1CCCCC1)Nc1ccn(CCCCn2cc(C(=O)NCc3ncccc3F)nn2)c(=O)c1 [Example 146, 1-{4-[4-(2-cyclohexylacetamido)-2-oxo-1,2-dihydropyridin-1-yl]butyl}-N-[(3-fluoropyridin-2-yl)methyl]-1H-1,2,3-triazole-4-carboxamide] | 100 to 500 nM | < 100 nM
20 | O=C(Cc1ccccc1)Nc1ccn(CCCCn2cc(C(=O)NCc3ncccc3F)nn2)c(=O)c1 [Example 147, N-[(3-fluoropyridin-2-yl)methyl]-1-{4-[2-oxo-4-(2-phenylacetamido)-1,2-dihydropyridin-1-yl]butyl}-1H-1,2,3-triazole-4-carboxamide] | > 5000 nM | 100 to 500 nM
